{
  "source": "patent US20260048041A1",
  "about": "“COMPOSITION FOR REMOVING HELICOBACTER PYLORI COMPRISING ZASTAPRAZAN OR PHARMACEUTICALLY ACCEPTABLE SALT THEREOF” (JEIL PHARMACEUTICAL CO., LTD., priority 2022, published 2026)",
  "key": {"[1]": {"system": "Helicobacter pylori SS1 (mouse colonizing strain)", "test": "Anti-H. pylori in vitro efficacy test, MIC and MBC by microdilution (CLSI)", "assay_type": "cell-based", "experimental": "(§1) Helicobacter pylori SS1 (mouse colonizing strain): A strain known as Sydney strain. The strain is CagA-positive and VacA-positive and has been confirmed to infect and colonize in C57BL/6 mice. The strain is used in animal testing. An antibiotic susceptibility testing was performed using the microdilution method according to the CLSI guideline. […] The bacteria were inoculated into wells containing only medium without antibiotics to prepare the positive control group, and the wells containing only medium without antibiotics or inoculated bacteria were used as the negative control group. The concentration range of the test substances, zastaprazan (JP-1366) and fexuprazan, was determined through preliminary experiments. […] The lowest concentration at which no bacterial growth was observed was determined as the MIC. […] The lowest concentration at which no bacteria growth occurred was determined as the MBC. […] All tests were performed in duplicate, and the results were determined by conducting the experiments in triplicate."}, "[2]": {"system": "Helicobacter pylori (ATCC43504)", "test": "Anti-H. pylori in vitro efficacy test, MIC and MBC by microdilution (CLSI)", "assay_type": "cell-based", "conditions": "strain 43504, unit not given in table (method uses μg/mL); for MIC: 3 days, microaerobic", "experimental": "as §1, with “(ATCC43504): Type” for “SS1 (mouse colonizing strain): A”, “for antibiotic susceptibility testing according” for “known as Sydney strain. The strain is CagA-positive and VacA-positive and has been confirmed”, “the Clinical & Laboratory Standards Institute (CLSI) guidelines.” for “infect and colonize in C57BL/6 mice. The strain is used in animal testing.”"}, "[3]": {"system": "Helicobacter pylori 26695 (ATCC700329)", "test": "Anti-H. pylori in vitro efficacy test, MIC and MBC by microdilution (CLSI)", "assay_type": "cell-based", "conditions": "strain 26695; unit not given in table (method uses μg/mL)", "experimental": "Helicobacter pylori 26695 (ATCC700329): A strain isolated from a patient known to be associated with the development of gastric cancer. The strain is cytotoxin associated gene (CagA)-positive and vacuolating cytotoxin (VacA)-positive and has a well-known genetic background, so it is mainly used for research purposes. An antibiotic susceptibility testing was performed using the microdilution method according to the CLSI guideline. […] The bacteria were inoculated into wells containing only medium without antibiotics to prepare the positive control group, and the wells containing only medium without antibiotics or inoculated bacteria were used as the negative control group. The concentration range of the test substances, zastaprazan (JP-1366) and fexuprazan, was determined through preliminary experiments. […] The lowest concentration at which no bacterial growth was observed was determined as the MIC. […] The lowest concentration at which no bacteria growth occurred was determined as the MBC. […] All tests were performed in duplicate, and the results were determined by conducting the experiments in triplicate."}, "[4]": {"system": "Helicobacter pylori SS1 (mouse colonizing strain)", "test": "Efficacy of JP-1366 to enhance antibacterial activity of clarithromycin, MIC and MBC by microdilution", "assay_type": "cell-based", "conditions": "H. pylori SS1", "experimental": "Helicobacter pylori SS1 (mouse colonizing strain): Known as Sydney strain, the strain is […] and VacA-positive, and has been confirmed to colonize mice C57BL/6 and is used in animal experiments.\nAn antibiotic susceptibility test was performed by the microdilution method according to CLSI guideline.\nThe antibiotic susceptibility test was performed using MH broth (7% horse serum, 0.4% IsoVitalex), and the susceptibility test medium for zastaprazan (JP-1366) was prepared at this time. […] Using the medium prepared in this way, clarithromycin was serially diluted 2-fold and in 16 steps, with a maximum concentration of 16 μg/mL. Wells containing only the medium without antibiotics were used as a negative control group, and wells inoculated only with the bacteria in the medium without antibiotics were used as a positive control group. H. pylori stored in a deep freezer (−70° C. or lower) was inoculated onto BHI agar (w/7% laked horse blood, 0.4% IsoVitalex) and cultured for three days at 37° C. under microaerophilic conditions (Oxoid CampyGene gas pk) and then subcultured onto a fresh medium. The cultured bacteria were harvested, suspended in PBS, and inoculated into each well at a concentration of 5×10^5 CFU/mL. Thereafter, the bacteria were cultured for three days at 37° C. under microaerophilic conditions of 5% 02, 10% CO2, and 85% N2 gas. The lowest concentration of the sample at which no bacterial growth was observed was determined as the MIC. […] The lowest concentration at which no bacterial growth was observed was determined as the minimum bactericidal concentration(MBC)."}, "[5]": {"system": "patients with erosive gastroesophageal reflux disease", "test": "Phase 2 clinical trial, healing of mucosal breaks and symptoms", "assay_type": "in vivo, human", "experimental": "H. pylori testing was performed by 13C-urea breath test (13C-UBT), gastroscopy (Campylobacter-like organism test, CLO), or tissue biopsy to confirm H. pylori positivity/negativity. The testing was performed at the screening visit (Visit 1) or the randomization visit (Visit 2), and results from the same institution within 29 days prior to the randomization visit (Visit 2) could be substituted. This clinical trial was a randomized, double-blind, active-controlled, multicenter, phase 2 clinical trial targeting patients with erosive gastroesophageal reflux disease. After the subjects gave written consent to participate in the clinical trial, a screening test was conducted. […] At this time, the subjects were stratified by grade (A, B, C, D) according to the LA classification system classified by upper gastrointestinal endoscopy. Randomly assigned subjects took the clinical trial drug once a day according to the assigned administration group for four weeks. After four weeks of administration of the clinical trial drug, the subjects visited the clinical trial institution to undergo an upper gastrointestinal endoscopy to assess whether they were healed. Healed subjects underwent a Safety Follow-Up (F/U) two weeks later, and unhealed subjects were administered the clinical trial drug for additional four weeks (a total of 8 weeks of administration) and visited the clinical trial institution to undergo an upper gastrointestinal endoscopy. […] 3."}, "[6]": {"test": "Solubility seen during MIC analysis", "assay_type": "physicochemical", "conditions": "in MIC medium; suspension formed, MIC analysis difficult", "excerpt": "Referring to Table 4 below, since the solubility of zastaprazan (JP-1366) was low, the MIC analysis was difficult (poor solubility, formation of suspension, interference in visual/absorbance analysis), so the inhibitory effect on the H. pylori strains was confirmed through the MBC index."}, "[7]": {"test": "Drug interaction (PK) trial of JP-1366, amoxicillin and clarithromycin in healthy adult volunteers", "assay_type": "in vivo, human", "excerpt": "Test drug and administration period A. Test drug 1: […] Jeil Pharmaceutical • Dose: […] Oral B. […] Selection and classification of clinical trial subjects […]"}, "[8]": {"conditions": "strain SS1, unit not given in table (method uses μg/mL)"}, "[9]": {"conditions": "MH medium + JP1366 at ½ MIC concentration, unit not given"}, "[10]": {"conditions": "MH medium, unit not given in table (method uses μg/mL)"}, "[11]": {"conditions": "JP-1366, three-drug regimen vs JP-1366 alone"}},
  "data": [
    {"smiles": "CC1(C)S[C@@H]2[C@H](NC(=O)[C@H](N)c3ccc(O)cc3)C(=O)N2[C@H]1C(=O)O", "note": "[Amoxicillin]", "values": [
      {"measurement": "MBC", "setting": "[1]; [8]", "result": 0.25},
      {"measurement": "MIC", "setting": "[2]", "result": "0.016~0.032"},
      {"measurement": "MBC", "setting": "[2]", "result": 0.032},
      {"measurement": "MBC", "setting": "[3]", "result": 0.032},
      {"measurement": "MIC", "setting": "[3]", "result": "0.016~0.032"}
    ]},
    {"smiles": "CC[C@H]1OC(=O)[C@H](C)[C@@H](O[C@H]2C[C@@](C)(OC)[C@@H](O)[C@H](C)O2)[C@H](C)[C@@H](O[C@@H]2O[C@H](C)C[C@H](N(C)C)[C@H]2O)[C@](C)(OC)C[C@@H](C)C(=O)[C@H](C)[C@@H](O)[C@]1(C)O", "note": "[Clarithromycin]", "values": [
      {"measurement": "MBC", "setting": "[1]; [8]", "result": 0.125},
      {"measurement": "MIC", "setting": "[1]; [8]", "result": 0.032},
      {"measurement": "MIC", "setting": "[2]", "result": 0.032},
      {"measurement": "MBC", "setting": "[2]", "result": 0.063},
      {"measurement": "MBC", "setting": "[4]; [9]", "result": "0.032 to 0.063"},
      {"measurement": "MIC", "setting": "[4]; [9]", "result": "0.032 to 0.063"},
      {"measurement": "MBC", "setting": "[4]; [10]", "result": "0.063 to 0.125"},
      {"measurement": "MIC", "setting": "[4]; [10]", "result": "0.032 to 0.063"},
      {"measurement": "lowering of MBC in medium containing JP1366", "setting": "[4]; medium with zastaprazan (JP1366) at ½ MIC concentration vs MH medium", "result": "about ½"},
      {"measurement": "MBC", "setting": "[3]", "result": 0.125},
      {"measurement": "MIC", "setting": "[3]", "result": "0.063~0.125"}
    ]},
    {"smiles": "CNCc1cn(S(=O)(=O)c2cccc(F)c2)c(-c2ccc(F)cc2F)c1OC", "note": "[Fexuprazan]", "values": [
      {"measurement": "MBC", "setting": "[1]; [8]", "result": "64~128"},
      {"measurement": "MIC", "setting": "[1]; [8]", "result": 64},
      {"measurement": "MIC", "setting": "[2]", "result": 64},
      {"measurement": "MBC", "setting": "[2]", "result": "64~128"},
      {"measurement": "MBC", "setting": "[3]", "result": "64~128"},
      {"measurement": "MIC", "setting": "[3]", "result": 64}
    ]},
    {"smiles": "Cc1cccc(C)c1CNc1cc(C(=O)N2CCC2)cn2c(C)c(C)nc12.O=C(O)CC(O)(CC(=O)O)C(=O)O", "note": "[JP-1366, azetidin-1-yl{8-[(2,6-dimethylbenzyl)amino]-2,3-dimethylimidazo[1,2-a]pyridin-6-yl}methanone citrate salt]", "values": [
      {"measurement": "MBC", "setting": "[1]; Helicobacter pylori, stated in Example 5 method, H. pylori SS1, read-out: maximum MBC value", "result": 32, "unit": "µg/mL"},
      {"measurement": "MBC", "setting": "[1]; [8]", "result": "16~32"},
      {"measurement": "healing effect compared with Nexium 40 mg", "setting": "[5]; H. pylori-negative group, 20 mg", "result": "the same effect as Nexium 40 mg"},
      {"measurement": "symptoms (heartburn, acid reflux, heartburn/acid reflux) within 24 hours and for seven days after administration", "setting": "[5]; JP-1366 5 mg two capsules (10 mg) once a day", "result": "all symptoms tended to be ameliorated"},
      {"measurement": "symptoms (heartburn, acid reflux, heartburn/acid reflux) within 24 hours and for seven days after administration", "setting": "[5]; JP-1366 20 mg one capsule once a day", "result": "all symptoms tended to be ameliorated"},
      {"measurement": "MBC", "setting": "[2]", "result": "8~32"},
      {"measurement": "solubility", "setting": "[6]", "result": "low"},
      {"measurement": "MBC", "setting": "[3]", "result": "16~32"},
      {"measurement": "AUCT higher when T3 was administered compared to T1", "setting": "[7]; [11]", "result": "approximately 2.4 times"},
      {"measurement": "AUCτ, Geometric LS Mean Ratio (T3/T1), Point Estimate", "setting": "[7]; [11]", "result": 2.4422},
      {"measurement": "Cmax, ss higher when T3 was administered compared to T1", "setting": "[7]; [11]", "result": "approximately 1.8 times"},
      {"measurement": "Cmax, ss, Geometric LS Mean Ratio (T3/T1), Point Estimate", "setting": "[7]; [11]", "result": 1.7766},
      {"measurement": "Cmax", "setting": "[7]; human, in vivo, JP-1366 after T1: JP-1366 20 mg 1 capsule alone, twice daily, 5 days, oral, N = 24, read-out: Cmax, ss, Geometric LS Mean", "result": 156, "unit": "ng/mL"},
      {"measurement": "increase of area under the concentration-time curve (AUCT) compared to single administration", "setting": "[7]; zastaprazan combined with amoxicillin and clarithromycin", "result": "more than twofold"}
    ]},
    {"smiles": "COc1ccc2[nH]c([S+]([O-])Cc3ncc(C)c(OC)c3C)nc2c1", "note": "(stereo not drawn) [Omeprazole]", "values": [
      {"measurement": "MBC", "setting": "[1]; [8]", "result": "64~128"},
      {"measurement": "MIC", "setting": "[1]; [8]", "result": "32~64"},
      {"measurement": "MIC", "setting": "[2]", "result": 32},
      {"measurement": "MBC", "setting": "[2]", "result": 64},
      {"measurement": "MBC", "setting": "[3]", "result": "64~128"},
      {"measurement": "MIC", "setting": "[3]", "result": "32~64"}
    ]}
  ]
}
